{"source": "patent US8183271B2", "about": "“Tetrazole derivatives and their use for the treatment of cardiovascular diseases” (Bayer Intellectual Property GmbH, priority 2005, dated 2012)", "key": {"[1]": {"target": "T1, Heme-containing sGC (recombinant soluble guanylate cyclase) (Rattus norvegicus, UniProt P20595)", "T1 construct": "made in house", "T1 sequence (P20595 1-619)": "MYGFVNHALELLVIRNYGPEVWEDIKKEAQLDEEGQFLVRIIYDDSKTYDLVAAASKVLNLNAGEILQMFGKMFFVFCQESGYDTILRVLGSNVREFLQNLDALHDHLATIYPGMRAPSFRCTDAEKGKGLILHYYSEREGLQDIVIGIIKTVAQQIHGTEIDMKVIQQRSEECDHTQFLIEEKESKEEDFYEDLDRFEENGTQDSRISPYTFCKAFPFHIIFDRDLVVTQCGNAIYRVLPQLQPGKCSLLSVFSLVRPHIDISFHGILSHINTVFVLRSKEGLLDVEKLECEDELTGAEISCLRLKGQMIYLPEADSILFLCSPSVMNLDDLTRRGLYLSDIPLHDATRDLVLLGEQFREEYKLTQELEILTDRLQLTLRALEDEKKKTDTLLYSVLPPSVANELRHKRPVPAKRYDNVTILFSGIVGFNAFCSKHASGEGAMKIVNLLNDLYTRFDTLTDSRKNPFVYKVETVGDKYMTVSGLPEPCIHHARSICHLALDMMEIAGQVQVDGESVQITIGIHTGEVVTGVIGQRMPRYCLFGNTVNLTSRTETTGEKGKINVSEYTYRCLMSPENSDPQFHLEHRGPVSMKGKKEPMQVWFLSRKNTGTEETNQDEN", "T1 sequence (P19686 1-690 partner)": "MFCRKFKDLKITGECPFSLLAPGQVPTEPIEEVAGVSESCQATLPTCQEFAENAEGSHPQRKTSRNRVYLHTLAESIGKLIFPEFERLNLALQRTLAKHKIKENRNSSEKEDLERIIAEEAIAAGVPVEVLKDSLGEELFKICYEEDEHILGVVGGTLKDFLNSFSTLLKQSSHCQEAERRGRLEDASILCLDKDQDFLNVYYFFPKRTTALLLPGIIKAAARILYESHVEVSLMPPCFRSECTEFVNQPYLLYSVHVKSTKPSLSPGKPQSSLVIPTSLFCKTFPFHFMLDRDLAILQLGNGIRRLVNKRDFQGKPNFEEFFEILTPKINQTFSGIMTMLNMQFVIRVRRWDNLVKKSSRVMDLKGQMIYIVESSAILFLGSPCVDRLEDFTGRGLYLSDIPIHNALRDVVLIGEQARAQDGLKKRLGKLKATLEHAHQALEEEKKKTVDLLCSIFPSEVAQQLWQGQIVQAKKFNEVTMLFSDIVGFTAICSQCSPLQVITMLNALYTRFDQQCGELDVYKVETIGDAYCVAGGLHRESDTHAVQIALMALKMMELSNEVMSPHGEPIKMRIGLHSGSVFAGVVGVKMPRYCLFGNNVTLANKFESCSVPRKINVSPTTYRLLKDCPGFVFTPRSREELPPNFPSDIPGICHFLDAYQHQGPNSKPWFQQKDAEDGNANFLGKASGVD", "experiment": "Stimulation of recombinant soluble guanylate cyclase (sGC) in vitro, heme-containing enzyme", "assay_type": "biochemical", "excerpt": "Hoenicka, E. M. Becker, H. Apeler, T. Sirichoke, H. Schroeder, R. Gerzer and J.-P. Stasch, “Purified soluble guanylyl cyclase expressed in a baculovirus/Sf9 system: Stimulation by YC-1, nitric oxide, and carbon oxide”, J. Mol. Med. 77 (1999), 14-23. The heme-free guanylate cyclase is obtained by adding Tween 20 to the sample buffer (0.5% in the final concentration).\n(§1) The activation of sGC by a test substance is reported as n-fold stimulation of the basal activity."}, "[2]": {"target": "T2, Heme-free sGC (recombinant soluble guanylate cyclase) (Rattus norvegicus, UniProt P20595)", "T2 construct": "made in house", "T2 sequence (P20595 1-619)": "T1 sequence (P20595 1-619)", "T2 sequence (P19686 1-690 partner)": "T1 sequence (P19686 1-690 partner)", "experiment": "Stimulation of recombinant soluble guanylate cyclase (sGC) in vitro, heme-free enzyme", "assay_type": "biochemical", "method": "Investigations on the stimulation of recombinant soluble guanylate cyclase (sGC) by the compounds according to the invention with and without sodium nitroprusside, and with and without the heme-dependent sGC inhibitor 1H-1,2,4-oxadiazole-(4,3a)-quinoxalin-1-one (ODQ) are carried out by the method described in detail in the following reference: M. Hoenicka, E. M. Becker, H. Apeler, T. Sirichoke, H. Schroeder, R. Gerzer and J.-P. Stasch, “Purified soluble guanylyl cyclase expressed in a baculovirus/Sf9 system: Stimulation by YC-1, nitric oxide, and […]”, J. Mol. Med. 77 (1999), 14-23. The heme-free guanylate cyclase is obtained by adding Tween 20 to the sample buffer (0.5% in the final concentration).\nas §1"}}}
{"smiles": "CC(C)(C)c1ccc(COc2ccccc2/C=C/C(CCc2ccc(-c3nnn[nH]3)cc2)Cc2ccc(C(=O)O)cc2)cc1", "note": "(single isomer, unassigned) [Example 6, 4-((3E)-4-{2-[(4-tert-Butylbenzyl)oxy]phenyl}-2-{2-[4-(1H-tetrazol-5-yl)phenyl]ethyl}but-3-en-1-yl)benzoic acid]", "values": [{"measurement": "Stimulation (n-fold) Heme-containing sGC Basal", "setting": "[1]; 0.001 μM Example 6", "value": 1.9, "unit": "n-fold"}, {"measurement": "Stimulation (n-fold) Heme-containing sGC +0.1 μM DEA/NO", "setting": "[1]; 0.001 μM Example 6 + 0.1 μM DEA/NO", "value": 62.0, "unit": "n-fold"}, {"measurement": "Stimulation (n-fold) Heme-containing sGC +10 μM ODQ", "setting": "[1]; 0.001 μM Example 6 + 10 μM ODQ", "value": 4.8, "unit": "n-fold"}, {"measurement": "Stimulation (n-fold) Heme-containing sGC Basal", "setting": "[1]; 0.01 μM Example 6", "value": 5.1, "unit": "n-fold"}, {"measurement": "Stimulation (n-fold) Heme-containing sGC +0.1 μM DEA/NO", "setting": "[1]; 0.01 μM Example 6 + 0.1 μM DEA/NO", "value": 66.0, "unit": "n-fold"}, {"measurement": "Stimulation (n-fold) Heme-containing sGC +10 μM ODQ", "setting": "[1]; 0.01 μM Example 6 + 10 μM ODQ", "value": 25.7, "unit": "n-fold"}, {"measurement": "Stimulation (n-fold) Heme-containing sGC Basal", "setting": "[1]; 0.1 μM Example 6", "value": 20.2, "unit": "n-fold"}, {"measurement": "Stimulation (n-fold) Heme-containing sGC +0.1 μM DEA/NO", "setting": "[1]; 0.1 μM Example 6 + 0.1 μM DEA/NO", "value": 80.0, "unit": "n-fold"}, {"measurement": "Stimulation (n-fold) Heme-containing sGC +10 μM ODQ", "setting": "[1]; 0.1 μM Example 6 + 10 μM ODQ", "value": 102.7, "unit": "n-fold"}, {"measurement": "Stimulation (n-fold) Heme-containing sGC Basal", "setting": "[1]; 1 μM Example 6", "value": 29.5, "unit": "n-fold"}, {"measurement": "Stimulation (n-fold) Heme-containing sGC +0.1 μM DEA/NO", "setting": "[1]; 1 μM Example 6 + 0.1 μM DEA/NO", "value": 96.2, "unit": "n-fold"}, {"measurement": "Stimulation (n-fold) Heme-containing sGC +10 μM ODQ", "setting": "[1]; 1 μM Example 6 + 10 μM ODQ", "value": 125.8, "unit": "n-fold"}, {"measurement": "Stimulation (n-fold) Heme-containing sGC Basal", "setting": "[1]; 10 μM Example 6", "value": 42.1, "unit": "n-fold"}, {"measurement": "Stimulation (n-fold) Heme-containing sGC +0.1 μM DEA/NO", "setting": "[1]; 10 μM Example 6 + 0.1 μM DEA/NO", "value": 99.9, "unit": "n-fold"}, {"measurement": "Stimulation (n-fold) Heme-containing sGC +10 μM ODQ", "setting": "[1]; 10 μM Example 6 + 10 μM ODQ", "value": 135.0, "unit": "n-fold"}, {"measurement": "Effect of combination with the NO donor DEA/NO on sGC stimulation", "setting": "[1]; combination of Example 6 and DEA/NO", "value": "no synergistic effect"}, {"measurement": "Effect of the heme-dependent sGC inhibitor ODQ on sGC activation", "setting": "[1]; with ODQ, effect in fact increased", "value": "not blocked"}, {"measurement": "Stimulation (n-fold) Heme-free sGC Basal", "setting": "[2]; 0.001 μM Example 6", "value": 3.2, "unit": "n-fold"}, {"measurement": "Stimulation (n-fold) Heme-free sGC +10 μM ODQ", "setting": "[2]; 0.001 μM Example 6 + 10 μM ODQ", "value": 3.0, "unit": "n-fold"}, {"measurement": "Stimulation (n-fold) Heme-free sGC Basal", "setting": "[2]; 0.01 μM Example 6", "value": 20.4, "unit": "n-fold"}, {"measurement": "Stimulation (n-fold) Heme-free sGC +10 μM ODQ", "setting": "[2]; 0.01 μM Example 6 + 10 μM ODQ", "value": 18.9, "unit": "n-fold"}, {"measurement": "Stimulation (n-fold) Heme-free sGC Basal", "setting": "[2]; 0.1 μM Example 6", "value": 90.9, "unit": "n-fold"}, {"measurement": "Stimulation (n-fold) Heme-free sGC +10 μM ODQ", "setting": "[2]; 0.1 μM Example 6 + 10 μM ODQ", "value": 89.7, "unit": "n-fold"}, {"measurement": "Stimulation (n-fold) Heme-free sGC Basal", "setting": "[2]; 1 μM Example 6", "value": 143.8, "unit": "n-fold"}, {"measurement": "Stimulation (n-fold) Heme-free sGC +10 μM ODQ", "setting": "[2]; 1 μM Example 6 + 10 μM ODQ", "value": 143.8, "unit": "n-fold"}, {"measurement": "Stimulation (n-fold) Heme-free sGC Basal", "setting": "[2]; 10 μM Example 6", "value": 145.9, "unit": "n-fold"}, {"measurement": "Stimulation (n-fold) Heme-free sGC +10 μM ODQ", "setting": "[2]; 10 μM Example 6 + 10 μM ODQ", "value": 149.3, "unit": "n-fold"}]}
